Results taken from ChEMBL document CHEMBL5532661, “Discovery of a Novel Glucagon-like Peptide-1 (GLP-1) Analogue from Bullfrog and Investigation of Its Potential for Designing GLP-1-Based Multiagonists” (J Med Chem, 2024).
Calls of active or inactive are those of the source. The rule behind the calls is not given here. Numbered stars: 1 amine (or outer) side, 2 acyl side, 3 side chain; on linkers, the order of the positions; unused ones are H or OH. Side chains are listed from the residue outwards. Peptide text beside a SMILES is read from it. * marks the point of attachment. γGlu = O=C(O)[C@H](CCC(=O)[*:2])N[*:1]; Palmitoyl = CCCCCCCCCCCCCCCC(=O)*

Tests used:
[1] = molecular target: T1, Glucagon-like peptide 1 receptor (Homo sapiens, UniProt P43220); experiment: Agonist activity at human GLP-1 receptor expressed in HEK293 cells assessed as cAMP level by measuring relative percent (GLP-1 EC50/compound EC50) measured after 60 mins by HTRF based assay relative to GLP-1; type: functional, cell-based; details: filed as agonist
Mus musculus [2] = experiment: Anorexigenic effect in ICR mouse assessed as decrease in food intake at 30 nmol/kg, sc measured upto 72 hrs by acute food intake study; type: functional, organism-based
Mus musculus [3] = experiment: Reduction in blood glucose level in non-fasting DIO mouse at 30 nmol/kg, sc treated twice a day measured after 21 days by glucose tolerance test; type: functional, organism-based; details: time 21.0 day
Mus musculus [4] = experiment: Antihyperglycemic effect in DIO mouse assessed as antihyperglycemic duration by measuring blood glucose at 30 nmol/kg, sc administered twice daily measured after 72 hrs by hypoglycemic duration assay; type: functional, organism-based
Mus musculus [5] = experiment: Reduction in serum triglyceride in DIO mouse at 30 nmol/kg, sc treated twice a day measured after 21 days; type: functional, organism-based; details: time 21.0 day
Mus musculus [6] = experiment: Hypoglycemic effect in ICR mouse treated with 3 g/kg glucose assessed as reduction in blood glucose level at 10 nmol/kg, sc measured upto 120 mins by acute glucose lowering test; type: functional, organism-based
Mus musculus [7] = experiment: Reduction in total cholesterol in DIO mouse at 30 nmol/kg, sc treated twice a day measured after 21 days; type: functional, organism-based; details: time 21.0 day
Mus musculus [8] = experiment: Hypoglycemic effect in ICR mouse treated with 3 g/kg glucose assessed as reduction in blood glucose level at 100 nmol/kg, sc measured upto 120 mins by acute glucose lowering test; type: functional, organism-based
Mus musculus [9] = experiment: Reduction in feed intake in DIO mouse at 30 nmol/kg, sc treated twice a day measured after 21 days; type: functional, organism-based; details: time 21.0 day
Mus musculus [10] = experiment: Hypoglycemic effect in ICR mouse treated with 3 g/kg glucose assessed as reduction in blood glucose level at 30 nmol/kg, sc measured upto 120 mins pretreated with GLP-1R antagonist by OGTT; type: functional, organism-based
[11] = molecular target: T1, Glucagon-like peptide 1 receptor; experiment: Agonist activity at human GLP-1 receptor expressed in HEK293 cells assessed as cAMP level measured after 60 mins by HTRF based assay; type: functional, cell-based
[12] = molecular target: T1, Glucagon-like peptide 1 receptor; experiment: Potency index, ratio of Semaglutide EC50 to test compound EC50 for agonist activity at human GLP-1 receptor expressed in HEK293 cells assessed as cAMP level measured after 60 mins by HTRF based assay; type: functional, cell-based; details: filed as agonist
Glucagon receptor [13] = molecular target: T2, Glucagon receptor (Homo sapiens, UniProt P47871); experiment: Agonist activity at human GCGR expressed in HEK293 cells assessed as cAMP level measured after 60 mins by HTRF based assay; type: functional, cell-based
Mus musculus [14] = experiment: Antihyperglycemic effect in DIO mouse assessed as prolonged antihyperglycemic duration by measuring blood glucose at 100 nmol/kg, sc; type: functional, organism-based
[15] = molecular target: T3, Glucagon-like peptide 1 receptor (Mus musculus) (UniProt O35659); experiment: Agonist activity at mouse GLP-1 receptor expressed in HEK293 cells assessed as cAMP level measured after 60 mins by HTRF based assay; type: functional, cell-based; details: filed as agonist
T3 sequence (whole entry): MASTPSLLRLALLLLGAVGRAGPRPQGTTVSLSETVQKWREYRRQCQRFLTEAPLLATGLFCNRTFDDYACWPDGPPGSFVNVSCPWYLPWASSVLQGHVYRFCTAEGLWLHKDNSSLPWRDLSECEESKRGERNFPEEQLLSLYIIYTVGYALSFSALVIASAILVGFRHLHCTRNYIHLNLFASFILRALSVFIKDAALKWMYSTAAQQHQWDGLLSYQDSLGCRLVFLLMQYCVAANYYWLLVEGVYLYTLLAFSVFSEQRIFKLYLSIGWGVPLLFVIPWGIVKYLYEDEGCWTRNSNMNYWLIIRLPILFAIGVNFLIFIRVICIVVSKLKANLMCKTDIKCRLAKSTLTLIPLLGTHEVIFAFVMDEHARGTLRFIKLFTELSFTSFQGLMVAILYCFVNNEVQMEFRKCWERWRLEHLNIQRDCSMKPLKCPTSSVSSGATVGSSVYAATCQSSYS

Mus musculus [16] = experiment: Reduction in serum AST level in DIO mouse at 30 nmol/kg, sc treated twice a day measured after 21 days; type: functional, organism-based; details: time 21.0 day
Mus musculus [17] = experiment: Anorexigenic effect in ICR mouse assessed as decrease in food intake at 10 nmol/kg, sc measured upto 72 hrs by acute food intake study; type: functional, organism-based
Mus musculus [18] = experiment: Antihyperglycemic effect in DIO mouse assessed as antihyperglycemic duration by measuring blood glucose at 30 nmol/kg, sc measured after 12 to 24 hrs by hypoglycemic duration assay; type: functional, organism-based; details: time 12-24 hrs
Mus musculus [19] = experiment: Anorexigenic effect in sc dosed ICR mouse assessed as decrease in food intake measured upto 72 hrs by acute food intake study; type: functional, organism-based; details: dose 10-100 nmol/kg
Mus musculus [20] = experiment: Reduction in total fat mass in DIO mouse at 30 nmol/kg, sc treated twice a day measured after 21 days; type: functional, organism-based; details: time 21.0 day
Mus musculus [21] = experiment: Anorexigenic effect in ICR mouse assessed as decrease in food intake at 30 nmol/kg, sc measured at 48 hrs by acute food intake study; type: functional, organism-based
Glucagon receptor [22] = molecular target: T2, Glucagon receptor; experiment: Agonist activity at human GCGR expressed in HEK293 cells assessed as cAMP level by measuring relative percent (glucagon EC50/compound EC50) measured after 60 mins by HTRF based assay relative to glucagon; type: functional, cell-based; details: filed as agonist
Mus musculus [23] = experiment: Reduction in body weight in DIO mouse at 30 nmol/kg, sc treated twice a day measured after 21 days; type: functional; parameters: scale not given: the % may be the effect or the level left; details: time 21 day
[24] = molecular target: T3, Glucagon-like peptide 1 receptor (Mus musculus); experiment: Potency index, ratio of GLP-1 EC50 to test compound EC50 for agonist activity at mouse GLP-1 receptor expressed in HEK293 cells assessed as cAMP level measured after 60 mins by HTRF based assay; type: functional, cell-based; details: filed as agonist
Mus musculus [25] = experiment: Reduction in hepatic lipid content in DIO mouse at 30 nmol/kg, sc treated twice a day measured after 21 days by H and E staining based assay; type: functional, organism-based; details: time 21.0 day
[26] = molecular target: Glucagon receptor (Mus musculus) (UniProt Q61606); experiment: Agonist activity at mouse GCGR receptor expressed in HEK293 cells assessed as cAMP level measured after 60 mins by HTRF based assay; type: functional, cell-based; details: filed as agonist
Mus musculus [27] = experiment: Reduction in serum ALT level in DIO mouse at 30 nmol/kg, sc treated twice a day measured after 21 days; type: functional, organism-based; details: time 21.0 day
Glucagon receptor [28] = molecular target: T2, Glucagon receptor; experiment: Potency index, ratio of glucagon EC50 to test compound EC50 for agonist activity at human GCGR expressed in HEK293 cells assessed as cAMP level measured after 60 mins by HTRF based assay; type: functional, cell-based; details: filed as agonist

T1 sequence (P43220 whole entry): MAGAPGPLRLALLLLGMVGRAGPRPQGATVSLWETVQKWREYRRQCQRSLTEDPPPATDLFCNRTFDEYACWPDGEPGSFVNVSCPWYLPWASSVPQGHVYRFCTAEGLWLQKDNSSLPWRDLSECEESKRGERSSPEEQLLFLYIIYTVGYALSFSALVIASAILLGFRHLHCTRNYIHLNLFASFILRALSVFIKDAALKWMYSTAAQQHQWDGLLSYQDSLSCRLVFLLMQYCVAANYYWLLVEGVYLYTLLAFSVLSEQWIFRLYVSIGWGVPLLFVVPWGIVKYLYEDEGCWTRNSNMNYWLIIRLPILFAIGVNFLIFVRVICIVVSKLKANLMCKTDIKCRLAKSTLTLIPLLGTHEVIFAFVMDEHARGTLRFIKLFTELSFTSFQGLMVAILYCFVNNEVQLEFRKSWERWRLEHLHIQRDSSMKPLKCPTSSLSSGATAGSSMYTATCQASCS
T2 sequence (P47871 whole entry): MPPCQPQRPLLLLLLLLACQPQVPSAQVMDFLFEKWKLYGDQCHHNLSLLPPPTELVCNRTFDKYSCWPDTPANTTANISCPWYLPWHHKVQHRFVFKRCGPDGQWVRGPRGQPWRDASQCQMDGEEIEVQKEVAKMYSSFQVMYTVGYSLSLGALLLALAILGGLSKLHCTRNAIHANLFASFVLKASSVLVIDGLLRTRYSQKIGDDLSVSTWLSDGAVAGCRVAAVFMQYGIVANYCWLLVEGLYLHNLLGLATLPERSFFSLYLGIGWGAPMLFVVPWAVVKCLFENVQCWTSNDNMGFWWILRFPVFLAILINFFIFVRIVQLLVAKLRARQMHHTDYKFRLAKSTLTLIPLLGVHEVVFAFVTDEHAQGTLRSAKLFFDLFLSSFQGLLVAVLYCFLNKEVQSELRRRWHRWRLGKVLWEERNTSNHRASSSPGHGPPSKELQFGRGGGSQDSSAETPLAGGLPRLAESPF
Chain of Glucagon receptor (Mus musculus) (Q61606 whole entry): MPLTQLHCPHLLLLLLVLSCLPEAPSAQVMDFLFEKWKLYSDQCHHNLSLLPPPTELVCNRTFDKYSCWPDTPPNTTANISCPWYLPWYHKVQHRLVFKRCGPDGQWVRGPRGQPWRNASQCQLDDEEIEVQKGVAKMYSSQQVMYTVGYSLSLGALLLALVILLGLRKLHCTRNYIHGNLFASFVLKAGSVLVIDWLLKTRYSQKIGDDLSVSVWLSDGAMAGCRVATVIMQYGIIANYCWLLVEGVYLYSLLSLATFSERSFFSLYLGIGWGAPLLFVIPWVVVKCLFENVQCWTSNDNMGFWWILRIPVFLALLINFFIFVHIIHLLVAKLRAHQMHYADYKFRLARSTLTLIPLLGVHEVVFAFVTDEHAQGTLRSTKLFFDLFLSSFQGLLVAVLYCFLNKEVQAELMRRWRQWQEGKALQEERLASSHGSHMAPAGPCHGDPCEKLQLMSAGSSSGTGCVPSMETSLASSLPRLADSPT

## CCCCCCCCCCCCCCCC(=O)N[C@@H](CCC(=O)NCCCC[C@H](NC(=O)[C@H](Cc1ccc(O)cc1)NC(=O)[C@H](CCCCN)NC(=O)[C@H](CO)NC(=O)[C@H](CCSC)NC(=O)[C@H](CC(=O)O)NC(=O)[C@H](CO)NC(=O)[C@@H](NC(=O)[C@H](Cc1ccccc1)NC(=O)[C@@H](NC(=O)CNC(=O)[C@H](CCC(N)=O)NC(=O)[C@H](CO)NC(=O)[C@@H](N)Cc1c[nH]cn1)[C@@H](C)O)[C@@H](C)O)C(=O)N[C@@H](CC(=O)O)C(=O)N[C@@H](CO)C(=O)N[C@@H](CCCNC(=N)N)C(=O)N[C@@H](CCCNC(=N)N)C(=O)N[C@@H](C)C(=O)N[C@@H](CCC(N)=O)C(=O)N[C@@H](CC(=O)O)C(=O)N[C@@H](Cc1ccccc1)C(=O)N[C@H](C(=O)N[C@@H](CC(=O)O)C(=O)N[C@@H](Cc1c[nH]c2ccccc12)C(=O)N[C@@H](CC(C)C)C(=O)N[C@@H](CCCCN)C(=O)N[C@@H](CC(N)=O)C(=O)NCC(=O)NCC(=O)N1CCC[C@H]1C(=O)N[C@@H](CO)C(=O)N[C@@H](CO)C(=O)NCC(=O)N[C@@H](C)C(=O)N1CCC[C@H]1C(=O)N1CCC[C@H]1C(=O)N1CCC[C@H]1C(=O)N[C@@H](CO)C(N)=O)C(C)C)C(=O)O (H-HSQGTFTSDMSKYK([γGlu-Palmitoyl])DSRRAQDFVDWLKNGGPSSGAPPPS-NH2)
[1]
  Activity: 482%
Mus musculus [2]
  Activity: Active
Mus musculus [3]
  Activity: Active
Mus musculus [4]
  Activity: Active
Mus musculus [5]
  Activity: Active
Mus musculus [6]
  Activity: Active
Mus musculus [7]
  Activity: Active
Mus musculus [8]
  Activity: Active
Mus musculus [9]
  Activity: Active
Mus musculus [10]
  Activity: inactive
[11]
  EC50: 0.011 nM
[12]
  Ratio EC50: 3
Glucagon receptor [13]
  EC50: 0.027 nM
Mus musculus [14]
  Activity: Active
[15]
  Activity: Active
Mus musculus [16]
  Activity: Active
Mus musculus [17]
  Activity: Active
Mus musculus [18]
  Activity: Active
Mus musculus [19]
  Activity: Dose-Dependent Effect
Mus musculus [20]
  Activity: Active
Mus musculus [21]
  Activity: Active
Glucagon receptor [22]
  Activity: 341%
Mus musculus [23]
  Activity: 30.6%
[24]
  Ratio EC50: 3
Mus musculus [25]
  Activity: Active
[26]
  Activity: Active
Mus musculus [27]
  Activity: Active
Glucagon receptor [28]
  Ratio EC50: 3
